The source made the active and inactive calls. No cut-off for these calls is given here.
How the values were obtained:
[1] = test system: Saccharomyces cerevisiae; assay: Antibacterial activity against Saccharomyces cerevisiae assessed as growth inhibition at 0.5 umol at 26 degC after 24 hrs by agar diffusion assay; format: functional, organism-based
[2] = test system: Bacillus pumilus; assay: Antibacterial activity against Bacillus pumilus assessed as growth inhibition at 0.5 umol at 26 degC after 24 hrs by agar diffusion assay; format: functional, organism-based
[3] = test system: Escherichia coli; assay: Antibacterial activity against Escherichia coli assessed as growth inhibition at 0.5 umol at 37 degC after 24 hrs by agar diffusion assay; format: functional, organism-based
[4] = test system: Cladosporium cucumerinum; assay: Antibacterial activity against Cladosporium cucumerinum CBS 177.54 assessed as growth inhibition at 0.5 umol at 18 degC after 3 to 5 days by agar diffusion assay; format: functional, organism-based
[5] = test system: Brevibacillus brevis; assay: Antibacterial activity against Bacillus brevis NCCB 89173 assessed as growth inhibition at 0.5 umol at 37 degC after 24 hrs by agar diffusion assay; format: functional, organism-based
[6] = test system: Bacillus subtilis; assay: Antibacterial activity against Bacillus subtilis NCCB 1089 assessed as growth inhibition at 0.5 umol at 37 degC after 24 hrs by agar diffusion assay; format: functional, organism-based
[7] = test system: Bacillus pumilus; assay: Antibacterial activity against Bacillus pumilus assessed as diameter of growth inhibition zone at 0.5 umol at 26 degC after 24 hrs by agar diffusion assay; format: functional
[8] = test system: Brevibacillus brevis; assay: Antibacterial activity against Bacillus brevis NCCB 89173 assessed as diameter of growth inhibition zone at 0.5 umol at 37 degC after 24 hrs by agar diffusion assay; format: functional
[9] = test system: Bacillus subtilis; assay: Antibacterial activity against Bacillus subtilis NCCB 1089 assessed as diameter of growth inhibition zone at 0.5 umol at 37 degC after 24 hrs by agar diffusion assay; format: functional

| SMILES | growth inhibition (GI) [1] | growth inhibition (GI) [2] | growth inhibition (GI) [3] | growth inhibition (GI) [4] | growth inhibition (GI) [5] | growth inhibition (GI) [6] | diameter of the inhibition zone (DIZ) [7] | diameter of the inhibition zone (DIZ) [8] | diameter of the inhibition zone (DIZ) [9] |
| --- | --- | --- | --- | --- | --- | --- | --- | --- | --- |
| C[C@@H](O)[C@H](NC(=O)c1cc2c([nH]c3ccc(O)cc32)c(CCC(=O)N2CCC[C@H]2C(=O)O)n1)C(=O)O | inactive | inactive | inactive | inactive | inactive | inactive |  |  |  |
| NCCC[C@H](N)CC(=O)N[C@@H]1[C@@H](O)[C@H](OC(N)=O)[C@@H](CO)O[C@H]1/N=C1\N[C@@H]2[C@H](O)CNC(=O)[C@H]2N1 [NOURSEOTHRICIN] |  |  |  |  |  |  | 25 mm | 25 mm | 14 mm |

From ChEMBL document CHEMBL2331258, “HR-MALDI-MS imaging assisted screening of β-carboline alkaloids discovered from Mycena metata” (2013)
